In patent publication US20240066136A1, “MODIFIED PROTEINS AND PROTEIN DEGRADERS” (Cullgen (Shanghai), Inc., priority 2020, published 2024) one finds Kd data, which are given here for 43 compounds.

The term Kd denotes the free concentration of one partner at which half of the binding sites on the other are occupied at equilibrium, for simple one-to-one binding.

Each structure is given as a SMILES string. Bounds are passed on as bounds.

In the first assay the target is Human DDB1 (Homo sapiens (Human), UniProt Q16531). As to the kind of experiment: Surface plasmon resonance (SPR) binding assay to immobilized His-DDB1. Particulars: SPR, DDB1 binding moieties with linkers and/or target protein binding moiety; read-out: Binding (Kd). On the procedure: The binding affinities of heterobifunctional compounds to DDB1 were determined by SPR assay. Purified His-DDB1 proteins were immobilized on a CM5 sensor chip, and a dose range of compound solutions were injected in multi-cycle kinetic format. Data were fit to steady state model and gave equivalent dissociation constants (KD).
Human DDB1, sequence (Q16531 whole entry): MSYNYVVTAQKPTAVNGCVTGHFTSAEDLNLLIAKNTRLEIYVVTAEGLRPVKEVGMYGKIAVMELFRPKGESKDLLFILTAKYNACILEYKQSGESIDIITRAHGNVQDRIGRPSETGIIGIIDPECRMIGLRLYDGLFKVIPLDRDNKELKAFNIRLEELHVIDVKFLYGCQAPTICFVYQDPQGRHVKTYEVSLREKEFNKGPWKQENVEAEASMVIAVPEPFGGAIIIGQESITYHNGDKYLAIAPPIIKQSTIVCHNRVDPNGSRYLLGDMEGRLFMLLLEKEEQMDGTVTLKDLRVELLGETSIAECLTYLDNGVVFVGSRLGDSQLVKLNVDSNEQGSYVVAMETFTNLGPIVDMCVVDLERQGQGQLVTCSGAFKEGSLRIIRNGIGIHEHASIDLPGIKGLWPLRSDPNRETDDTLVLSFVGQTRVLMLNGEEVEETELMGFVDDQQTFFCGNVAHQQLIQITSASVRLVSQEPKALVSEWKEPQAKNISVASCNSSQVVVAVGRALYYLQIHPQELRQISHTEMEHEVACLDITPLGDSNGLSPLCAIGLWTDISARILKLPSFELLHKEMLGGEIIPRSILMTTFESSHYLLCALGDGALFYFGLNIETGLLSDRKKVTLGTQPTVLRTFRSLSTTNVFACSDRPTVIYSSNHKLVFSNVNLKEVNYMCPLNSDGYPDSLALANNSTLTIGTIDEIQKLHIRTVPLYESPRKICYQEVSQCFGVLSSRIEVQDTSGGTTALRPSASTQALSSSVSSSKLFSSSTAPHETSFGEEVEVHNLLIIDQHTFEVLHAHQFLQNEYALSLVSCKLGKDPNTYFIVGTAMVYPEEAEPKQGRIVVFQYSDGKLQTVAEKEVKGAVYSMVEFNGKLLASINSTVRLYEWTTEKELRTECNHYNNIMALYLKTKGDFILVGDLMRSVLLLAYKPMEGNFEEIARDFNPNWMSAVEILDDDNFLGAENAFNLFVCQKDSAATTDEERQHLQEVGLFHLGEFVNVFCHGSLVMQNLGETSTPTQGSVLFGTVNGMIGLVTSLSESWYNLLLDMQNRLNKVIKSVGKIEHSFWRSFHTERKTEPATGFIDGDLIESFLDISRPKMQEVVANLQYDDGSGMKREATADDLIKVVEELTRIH
Protein Expression and Purification. Human DDB1 (UniPro: Q16531) coding sequences were cloned into pFastBacHTB vector and were expressed in High5 cells using Bac-to-Bac baculovirus expression system (Thermo Fisher Scientific). […] DDB1 proteins were obtained from supernatant of cell lysates and purified through sequential application of Ni affinity (Ni-NTA column. Bio-Rad), and size-exclusion (Superdex 200 16/600GL column, GE Healthcare) column chromatography.
Surface plasmon resonance (SPR) binding assay. All SPR studies were performed on a Biacore X100 plus or T200 instrument (GE Healthcare). Immobilization of purified His-DDB1 was carried out at 25° C. using a CM5 sensor chip. The surface was pre-equilibrated in HBS-EP running buffer (10 mM HEPES, pH7.4, 150 mM NaCl, 3 mM EDTA, 0.05% P20), then activated with EDC/NHS. His-DDB1 proteins were immobilized by amine coupling to a density of 11,000-13,000 resonance units (RUs) on flow cell FC2, whereas flow cell FC1 was used as reference. Both DDB1 immobilized and reference surfaces were deactivated with 1M ethanolamine.
All interaction experiments were performed at 25° C. […] Compound Solutions were injected individually in multi-cycle kinetic format without regeneration (flow rate […], association time 120 s, dissociation time 120 s). Sensorgrams from reference surfaces and blank injections were subtracted from the raw data (double-referencing) and the data was solvent-corrected prior to analysis. All data were fit to steady state affinity model using Biacore Evaluation Software and gave equivalent dissociation constants (KD).
Background: Surface plasmon resonance follows binding to a sensor surface in real time, without labels.
Regarding `CC(=O)Nc1cc(NCCCCCCCNC(=O)C[C@@H]2N=C(c3ccc(Cl)cc3)c3c(sc(C)c3C)-n3c(C)nnc32)ccc1C(=O)Nc1nc(C)c([N+](=O)[O-])s1` [D-29, (S)-2-Acetamido-4-((7-(2-(4-(4-chlorophenyl)-2,3,9-trimethyl-6H-thieno[3,2-f][1,2,4]triazolo[4,3-a][1,4]diazepin-6-yl)acetamido)heptyl)amino)-N-(4-methyl-5-nitrothiazol-2-yl)benzamide], the dissociation constant Kd was in the range of 20 to 100 µM.

With `CC(=O)Nc1cc(NCCCCN)ccc1C(=O)Nc1ccc([N+](=O)[O-])s1` [BL-20, 2-Acetamido-4-((4-aminobutyl)amino)-N-(5-nitrothiophen-2-yl)benzamide], the Kd lay within 20 to 100 µM.

`CC(=O)Nc1cc(NCCOCCOCCOCCOCCOCCOCCNC(=O)C[C@@H]2N=C(c3ccc(Cl)cc3)c3c(sc(C)c3C)-n3c(C)nnc32)ccc1C(=O)Nc1nc(C)c([N+](=O)[O-])s1` [D-37, (S)-2-Acetamido-4-((1-(4-(4-chlorophenyl)-2,3,9-trimethyl-6H-thieno[3,2-f][1,2,4]triazolo[4,3-a][1,4]diazepin-6-yl)-2-oxo-6,9,12,15,18,21-hexaoxa-3-azatricosan-23-yl)amino)-N-(4-methyl-5-nitrothiazol-2-yl)benzamide]: the Kd was in the range of 20 to 100 µM.

Still in this assay, the particulars now being: SPR, steady state affinity model, 25° C.; read-out: Binding (DDB1 binder activities, Kd).
With `CCCNC(=O)c1cccc(C(=O)Nc2ncc([N+](=O)[O-])s2)c1NC(C)=O` [B-145, 2-Acetamido-N^1-(5-nitrothiazol-2-yl)-N^3-propylisophthalamide], the Kd lay within 20 to 100 µM.

Take `CCOc1cc(NC2CCOC2)ccc1C(=O)Nc1ncc([N+](=O)[O-])s1` (stereo not shown) [B-97, 2-Ethoxy-N-(5-nitrothiazol-2-yl)-4-((tetrahydrofuran-3-yl)amino)benzamide]: the Kd is over 100 µM.

Regarding `CC(=O)Nc1ccccc1C(=O)Nc1nccs1` [B-41, 2-Acetamido-N-(thiazol-2-yl)benzamide], the dissociation constant Kd was over 100 µM.

Regarding `CNc1ccccc1C(=O)Nc1ncc([N+](=O)[O-])s1` [B-68, 2-(Methylamino)-N-(5-nitrothiazol-2-yl)benzamide], the Kd is 20 to 100 µM.

As for `CC(=O)Nc1ccccc1C(=O)Nc1ccc(I)cc1` [B-60, 2-Acetamido-N-(4-iodophenyl)benzamide], the Kd lay within 20 to 100 µM.

Turning to `CCCCNc1ccc(C)c(C(=O)Nc2ncc([N+](=O)[O-])s2)c1` [B-148, 5-(Butylamino)-2-methyl-N-(5-nitrothiazol-2-yl)benzamide], the Kd fell in the range of 20 to 100 µM.

Turning to `O=C(Nc1ncc(Cl)s1)c1ccccc1O` [B-10], the equilibrium dissociation constant (Kd) was in the range of 20 to 100 µM.

For the compound `CC(=O)Nc1ccccc1C(=O)Nc1nc(-c2ccccc2)c([N+](=O)[O-])s1` [B-34, 2-acetamido-N-(5-nitro-4-phenylthiazol-2-yl)benzamide], the Kd was under 20 µM.

In the case of `CCCC(=O)Nc1cccc(OC(C)=O)c1C(=O)Nc1ncc([N+](=O)[O-])s1` [B-23, 3-Butyramido-2-((5-nitrothiazol-2-yl)carbamoyl)phenyl acetate], the Kd lay in the range of 20 to 100 µM.

Regarding `CC(=O)Nc1ccccc1C(=O)Nc1ccc(C#N)s1` [B-128, 2-Acetamido-N-(5-cyanothiophen-2-yl)benzamide], the Kd was in the range of 20 to 100 µM.

In the case of `CC(=O)Nc1ccccc1C(=O)Nc1ncc(Cl)s1` [B-35, 2-Acetamido-N-(5-chlorothiazol-2-yl)benzamide], the Kd lay within 20 to 100 µM.

In the case of `CC(=O)Nc1ccccc1C(=O)Nc1cccnc1` [B-122, 2-Acetamido-N-(pyridin-3-yl)benzamide], the Kd was over 100 µM.

As for `O=C(Nc1cccc(N2CCOC2=O)c1)c1ccccc1C1CCCN1` (stereo not shown) [B-140, N-(3-(2-oxooxazolidin-3-yl)phenyl)-2-(pyrrolidin-2-yl)benzamide], the Kd is 20 to 100 µM.

Regarding `Cc1cc(C#N)ccc1C(=O)Nc1ncc([N+](=O)[O-])s1` [B-151, 4-Cyano-2-methyl-N-(5-nitrothiazol-2-yl)benzamide], the Kd is over 100 µM.

With `CCCCNc1ccc(OCC)c(C(=O)Nc2ncc([N+](=O)[O-])s2)c1` [B-155, 5-(Butylamino)-2-ethoxy-N-(5-nitrothiazol-2-yl)benzamide], the Kd was over 100 µM.

Regarding `CC(C)Oc1ccccc1C(=O)Nc1ncc([N+](=O)[O-])s1` [B-74, 2-Isopropoxy-N-(5-nitrothiazol-2-yl)benzamide], the Kd was under 20 µM.

Turning to `c1ncc(Nc2nccc(C3CCCCN3)n2)cn1` (stereo not shown) [B-137, 4-(piperidin-2-yl)-N-(pyrimidin-5-yl)pyrimidin-2-amine], the Kd lay within 20 to 100 µM.

As to `CC(=O)Nc1ccccc1C(=O)Nc1ncc(Br)s1` [B-37, 2-Acetamido-N-(5-bromothiazol-2-yl)benzamide], the Kd is over 100 µM.

As to `O=C(Nc1ncc([N+](=O)[O-])s1)c1ccccc1OC1CC1` [B-75, 2-Cyclopropoxy-N-(5-nitrothiazol-2-yl)benzamide], the Kd is over 100 µM.

As to `CC(=O)Nc1ccccc1C(=O)Nc1ccc([N+](=O)[O-])cc1` [B-125, 2-Acetamido-N-(4-nitrophenyl)benzamide], the Kd was under 20 µM.

On to `CC(=O)Nc1ccccc1C(=O)Nc1nc(C)c(Cl)s1` [B-40, 2-acetamido-N-(5-chloro-4-methylthiazol-2-yl)benzamide], for which the Kd was 20 to 100 µM.

For `CC(=O)Nc1ccccc1C(=O)Nc1ccc(Br)cn1` [B-55, 2-Acetamido-N-(5-bromopyridin-2-yl)benzamide], the Kd is 20 to 100 µM.

For `CCCNC(=O)c1cccc(C(=O)Nc2ncc([N+](=O)[O-])s2)c1O` [B-15, 2-hydroxy-N^1-(5-nitrothiazol-2-yl)-N^3-propylisophthalamide], the equilibrium dissociation constant (Kd) lay within 20 to 100 µM.

In the case of `O=C(Nc1ncc([N+](=O)[O-])s1)c1ccccc1-c1ccccc1` [B-86, N-(5-Nitrothiazol-2-yl)-[1,1′-biphenyl]-2-carboxamide], the Kd was under 20 µM.

For `CC(=O)Nc1ccccc1C(=O)Nc1ccc([N+](=O)[O-])cn1` [B-53, 2-Acetamido-N-(5-nitropyridin-2-yl)benzamide], the Kd is 20 to 100 µM.

Take `CC(=O)Nc1ccccc1C(=O)Nc1ncc(C(F)(F)F)s1` [B-38, 2-acetamido-N-(5-(trifluoromethyl)thiazol-2-yl)benzamide]: the equilibrium dissociation constant (Kd) was under 20 µM.

For the compound `CC(=O)Nc1ccccc1C(=O)Nc1ccncc1` [B-121, 2-Acetamido-N-(pyridin-4-yl)benzamide], the equilibrium dissociation constant (Kd) lay within 20 to 100 µM.

`Cc1ccccc1C(=O)Nc1nccs1` [B-176, 2-Methyl-N-(thiazol-2-yl)benzamide]: the Kd was under 20 µM.

`CCOc1cccc(C)c1C(=O)Nc1ncc([N+](=O)[O-])s1` [B-159, 2-Ethoxy-6-methyl-N-(5-nitrothiazol-2-yl)benzamide]: the Kd was over 100 µM.

For the compound `CC(=O)Nc1ccccc1C(=O)Nc1ncc(C(C)C)s1` [B-43, 2-Acetamido-N-(5-isopropylthiazol-2-yl)benzamide], the Kd fell in the range of 20 to 100 µM.

As for `O=C1CCCCN1c1ncc([N+](=O)[O-])s1` [B-99, 1-(5-Nitrothiazol-2-yl)piperidin-2-one], the Kd fell in the range of 20 to 100 µM.

As to `CN(C(=O)c1ccccc1CCC(F)(F)F)c1ncc([N+](=O)[O-])s1` [B-105, N-Methyl-N-(5-nitrothiazol-2-yl)-2-(3,3,3-trifluoropropyl)benzamide], the Kd is over 100 µM.

For the compound `CS(=O)(=O)Nc1ccccc1C(=O)Nc1ncc([N+](=O)[O-])s1` [B-67, 2-(methylsulfonamido)-N-(5-nitrothiazol-2-yl)benzamide], the Kd lay in the range of 20 to 100 µM.

As for `Cc1cc(N(C)C)ccc1C(=O)Nc1ncc([N+](=O)[O-])s1` [B-167, 4-(Dimethylamino)-2-methyl-N-(5-nitrothiazol-2-yl)benzamide], the Kd was over 100 µM.

For the compound `CCCCNc1ccc(C(=O)Nc2ncc([N+](=O)[O-])s2)c(OC(C)=O)c1` [B-17, 5-(Butylamino)-2-((5-nitrothiazol-2-yl)carbamoyl)phenyl acetate], the Kd is under 20 µM.

Consider `Cc1cc(N2CCN(C)CC2)ccc1C(=O)Nc1ncc([N+](=O)[O-])s1` [B-163, 2-Methyl-4-(4-methylpiperazin-1-yl)-N-(5-nitrothiazol-2-yl)benzamide], for which the Kd was over 100 µM.

On to `CCc1nnc(CNC(=O)c2ccccc2C2CCNC2)s1` (stereo not shown) [B-141, N-((5-ethyl-1,3,4-thiadiazol-2-yl)methyl)-2-(pyrrolidin-3-yl)benzamide], for which the Kd is 20 to 100 µM.

For the compound `CC(=O)Oc1ccccc1C(=O)N(C)c1ncc([N+](=O)[O-])s1` [B-8, 2-(Methyl(5-nitrothiazol-2-yl)carbamoyl)phenyl acetate], the Kd was under 20 µM.

`CC(=O)Nc1ccccc1C(=O)Nc1nc(-c2ccccc2)cs1` [B-46, 2-acetamido-N-(4-phenylthiazol-2-yl)benzamide]: the Kd is 20 to 100 µM.

Staying with this assay, now noted: read-out: Binding (DDB1 binder activities, Kd).
Consider `CCCNC(=O)c1ccc(C(=O)Nc2ncc([N+](=O)[O-])s2)c(OC(C)=O)c1` [B-12, 2-((5-Nitrothiazol-2-yl)carbamoyl)-5-(propylcarbamoyl)phenyl acetate], for which the Kd is under 20 µM.
